Values of other authors in patent US20180271890A1, “Solid Pharmaceutical Composition Comprising Amorphous Sofosbuvir” (priority 2015, published 2018).

| Compound | relative humidity at which the substance deliquesces (amorphous form) | behaviour under stress conditions (40 °C, relative humidity 75%) |
| --- | --- | --- |
| CC(C)OC(=O)[C@H](C)N[P@](=O)(OC[C@H]1O[C@@H](n2ccc(=O)[nH]c2=O)[C@](C)(F)[C@@H]1O)Oc1ccccc1 [Amorphous sofosbuvir, (S)-isopropyl 2-(((S)-(((2R,3R,4R,5R)-5-(2,4-dioxo-3,4-dihydropyrimidin-1(2H)-yl)-4-fluoro-3-hydroxy-4-methyltetrahydrofuran-2-yl)methoxy)(phenoxy)phosphoryl)-amino)propanoate] | above 50% | – |
| CC(C)OC(=O)[C@H](C)N[P@](=O)(OC[C@H]1O[C@@H](n2ccc(=O)[nH]c2=O)[C@](C)(F)[C@@H]1O)Oc1ccccc1 [sofosbuvir, (S)-isopropyl 2-(((S)-(((2R,3R,4R,5R)-5-(2,4-dioxo-3,4-dihydropyrimidin-1(2H)-yl)-4-fluoro-3-hydroxy-4-methyltetrahydrofuran-2-yl)methoxy)(phenoxy)phosphoryl)-amino)propanoate] | – | deliquesces after a few hours |
